Here are results for 14 molecules from patent US20230092163A1, “COMPOUNDS AND COMPOSITIONS FOR TREATING CONDITIONS ASSOCIATED WITH STING ACTIVITY” (IFM Due, Inc., priority 2019, published 2023).

Chain of STING (Q86WV6 whole entry R71H/G230A/H232R/R293Q): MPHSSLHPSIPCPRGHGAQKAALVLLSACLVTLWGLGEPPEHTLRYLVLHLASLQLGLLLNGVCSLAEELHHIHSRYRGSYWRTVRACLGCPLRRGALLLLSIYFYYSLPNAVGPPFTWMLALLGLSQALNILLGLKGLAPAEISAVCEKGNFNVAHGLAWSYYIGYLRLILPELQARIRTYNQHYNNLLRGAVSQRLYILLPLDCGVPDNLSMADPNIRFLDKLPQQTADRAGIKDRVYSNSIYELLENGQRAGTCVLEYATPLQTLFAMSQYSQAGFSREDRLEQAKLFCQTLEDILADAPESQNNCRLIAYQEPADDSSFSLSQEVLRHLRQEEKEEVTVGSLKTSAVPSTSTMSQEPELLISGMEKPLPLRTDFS

One assay concerns the target STING (Homo sapiens, UniProt Q86WV6, G230A/H232R/R293Q/R71H). Description: STING reporter assay: THP1-Dual KO-IFNAR2 cells stimulated with 2′3′cGAMP, luciferase reporter activity. Type of assay: cell-based. The settings on record: 15 μM 2′3′cGAMP, 24h, class symbols. In outline: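 THP1-Dual KO-IFNAR2 cells (2×10E6 cells/mL) treated with compounds at 0.0017-100 μM, then stimulated with 2′3′cGAMP (15 μM final) delivered by Lipofectamine 2000; 24 h at 37° C. Supernatant luciferase read by QUANTI-Luc Plus luminescence; EC50 from dose-response.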
A general note: Reporter assays use an easily measured gene product as a stand-in for the process of interest.
A word on the EC50: it is the concentration that produces a half-maximal response. On to `CN(C)Cc1cc(NC(=O)Nc2ccc(C(F)(F)F)cc2)cc2[nH]ccc12` [Compound 546], for which the EC50 was 5 to 100 µM. On the same count and under the same terms, to `Cc1cc(Nc2ccc3cc[nH]c3c2)nc(C(F)(F)F)c1` [Compound 578] belongs 0.2 to 1 µM; to `Cc1cc(NC(=O)Nc2cc(Cl)c3cc[nH]c3c2)cnc1N1CCC(F)(F)CC1` [Compound 500], 0.2 to 1 µM; to `Cc1nc(Nc2ccc3cc[nH]c3c2)ccc1Nc1ccc2cc[nH]c2c1` [Compound 583, N2,N5-bis(1H-indol-6-yl)-6-methylpyridine-2,5-diamine], 5 to 100 µM. The same measure, in the same setting: under `O=C(Nc1cccc(OC(F)F)c1)Nc1ccc2cc[nH]c2c1` [Compound 228] stands 1 to 5 µM. Same read-out and setting: under `O=C(Nc1ccc(C(F)(F)F)cc1)Nc1cc(N2CCCC(Cn3cncn3)C2)c2cc[nH]c2c1` (centres unmarked) [Compound 572] stands 5 to 100 µM.

Staying with this assay, now noted: 15 μM 2′3′cGAMP, 24h, numeric bounds.
`c1cnc2c(Nc3ccc4cc[nH]c4c3)nccc2c1` [Compound 407, N-(1H-indol-6-yl)-1,7-naphthyridin-8-amine]: the EC50 is > 30 µM.

With `Cn1cc(-c2cc(NC(=O)Nc3ccc(C(F)(F)F)cc3)cc3[nH]ccc23)cn1` [Compound 197], the EC50 was > 30 µM. Turning to `Cc1ccc(CCNC(=O)Nc2ccc3[nH]ccc3c2)cc1C` [Compound 356], the EC50 was > 30 µM. Same read-out and setting: to `O=C(Nc1ccc2cc[nH]c2c1)Nc1ccccc1F` [Compound 230] belongs > 30 µM; to `CC(C)CCNC(=O)Nc1ccc2[nH]ccc2c1` [Compound 329], > 30 µM; to `O=C(Nc1ccc2cc[nH]c2c1)Nc1cnccn1` [Compound 220], > 30 µM.

On to `O=C(Nc1cccc(C(F)F)c1)Nc1ccc2[nH]ccc2c1` [Compound 303], for which the EC50 was > 30 µM. Same read-out and setting: to `CC(C)(C)OC(=O)N1CC(CCNC(=O)Nc2ccc3cc[nH]c3c2)C1` [Compound 178] belongs > 30 µM.
